Laboratory results: paper PMC5377415, “Thermo‐kinetic analysis space expansion for cyclophilin‐ligand interactions – identification of a new nonpeptide inhibitor using Biacore™ T200” (FEBS Open Bio, 2017)

Biological target: T1, His-tagged human cyclophilin-A (His-CypA) (Homo sapiens, UniProt P62937)
T1 construct: gene PPIA; full length M1-E165, codon-optimised, E. coli C41
Experiment: SPR (Biacore T200), […] Langmuir fit, captured and stabilised His-CypA
Format: binding

T1 sequence (P62937 whole entry): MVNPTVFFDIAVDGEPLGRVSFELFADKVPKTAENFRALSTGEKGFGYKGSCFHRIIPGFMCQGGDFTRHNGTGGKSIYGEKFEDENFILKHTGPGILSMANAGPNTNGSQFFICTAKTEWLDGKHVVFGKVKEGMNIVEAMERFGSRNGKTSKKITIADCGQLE

Kd: 248 ± 60 µM
SMILES: Nc1cccnc1N [2,3-diaminopyridine]
